Assay results published in patent publication US20200123396A1, “PRODUCTS PRESERVED WITH 5-CHLORO-2-METHYL-4-ISOTHIAZOLIN-3-ONE” (THOR GMBH, priority 2014, published 2020).

Tests used:
[1] = destruction of 2-methylisothiazolin-3-one in an aqueous emulsion paint using sodium thiosulfate; format: physicochemical
Source text: A drawback, however, is that according to the method described, the isothiazolinones, and especially the MIT, are not destroyed quantitatively or irreversibly, and so are still always present in the products and derivatives, and may still as before cause problems to persons reacting allergically, and/or may give rise to contact eczemas or aerogenic contact eczemas in persons having a high degree of sensitization.

[2] = tested on: microorganisms introduced via the individual components of the paint; assay: microbiological investigations of the preserved emulsion paint; format: cell-based; conditions: 20 ppm of 5-chloro-2-methylisothiazolin-3-one (2-methylisothiazolin-3-one content <1 wt %) in water-based emulsion paint; growth detectable in individual components
Source text: Added to a preservative-free styrene-acrylate dispersion were 20 ppm of 5-chloro-2-methylisothiazolin-3-one, having a 2-methylisothiazolin-3-one content of <1 wt %. The styrene-acrylate dispersion thus preserved was then used for producing a water-based emulsion paint. The composition of the paint produced was as follows: • 25.7 wt % water • 0.2 wt % acrylate-based wetting and dispersing agent • 0.2 wt % mineral oil-based defoamer • 2.0 wt % water softener (sodium polyphosphate) • 0.2 wt % ammonia • 4.0 wt % titanium oxide (pigment) • 51.0 wt % calcium carbonate (filler) • 5.0 wt % talc (filler) • 0.4 wt %% cellulose ether • 2.0 wt % organic solvent for lowering the minimum film-forming temperature • 9.0 wt % the styrene-acrylate dispersion preserved with 20 ppm of 5-chloro-2-methylisothiazolin-3-one • 20 ppm 5-chloro-2-methylisothiazolin-3-one, having a 2-methylisothiazolin-3-one content of <1 wt %

[3] = decomposition of 5-chloro-2-methylisothiazolin-3-one in the emulsion paint by cysteine, HPLC; format: physicochemical; conditions: after 3 hours, addition of 50 ppm of cysteine based on the emulsion paint
Source text: In order, from the emulsion paint, which contained significant quantities of 5-chloro-2-methylisothiazolin-3-one, to produce a paint unobjectionable for allergics in relation to 5-chloro-2-methylisothiazolin-3-one and 2-methylisothiazolin-3-one present therein, to produce, these isothiazolin-3-ones were decomposed by addition of 50 ppm of cysteine, based on the emulsion paint.

In the case of `Cn1sccc1=O` [2-methylisothiazolin-3-one], the “destruction of 2-methylisothiazolin-3-one” value [1] is reported as “destroyed neither quantitatively nor irreversibly”.
With `Cn1sc(Cl)cc1=O` [5-chloro-2-methylisothiazolin-3-one] the “microbial growth in the emulsion paint” value [2] was “no microbial growth” and the “detectability of 5-chloro-2-methylisothiazolin-3-one in the emulsion paint by HPLC” value [3] was “no longer detectable”.
